Literature values in patent publication US20070292421A1, “Method for treating preeclampsia” (priority 2005, published 2007).
Each block holds one compound with its values, some of them ahead of it.

Assays:
[1] = system: 5-HT2C, 5-HT2B, 5-HT1D, alpha-adrenergic, and dopamine receptors; conditions: relative to 5-HT2A
[2] = molecular target: serotonin 5-HT2A receptor (Homo sapiens, UniProt P28223)
trophoblast apoptosis = conditions: in vitro
human C5a receptor = conditions: numerous models of human disease
[3] = system: antineutrophil cytoplasmic antibody (ANCA) positive patients
severe sepsis = conditions: OPTIMIST trial

Sequence of serotonin 5-HT2A receptor (P28223 whole entry): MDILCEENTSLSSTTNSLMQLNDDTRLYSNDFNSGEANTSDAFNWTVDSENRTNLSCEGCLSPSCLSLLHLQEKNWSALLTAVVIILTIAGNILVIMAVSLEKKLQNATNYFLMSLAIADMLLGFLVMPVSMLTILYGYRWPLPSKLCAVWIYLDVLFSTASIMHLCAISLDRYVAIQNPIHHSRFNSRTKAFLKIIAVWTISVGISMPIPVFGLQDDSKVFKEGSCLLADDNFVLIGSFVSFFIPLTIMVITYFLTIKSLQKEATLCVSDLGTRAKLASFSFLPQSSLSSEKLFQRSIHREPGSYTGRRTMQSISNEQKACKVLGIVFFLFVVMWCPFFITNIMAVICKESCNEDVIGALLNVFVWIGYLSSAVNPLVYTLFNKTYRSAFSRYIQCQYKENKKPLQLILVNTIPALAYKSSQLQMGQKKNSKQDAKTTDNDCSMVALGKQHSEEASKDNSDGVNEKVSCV

binding [1]: binds less potently
affinity [2]: high affinity
Compound: O=C(c1ccc(F)cc1)C1CCN(CCn2c(=O)[nH]c3ccccc3c2=O)CC1 [Ketanserin]

Compound: CC(=O)Oc1ccccc1C(=O)O [aspirin]
effect on trophoblast apoptosis (trophoblast apoptosis): regulate trophoblast apoptosis

Compound: Ac-Phe [3D53, Ac-Phe [Orn-Pro-D-Cha-Trp-Arg]]
anti-inflammatory activity (human C5a receptor): excellent anti-inflammatory activity

Compound: Rituximab: monoclonal antibody that binds the B cell surface protein CD20 (Roche Pharmaceuticals)
clinical improvement ([3]; n=11 patients combined, added to immunosuppressive drug regimen): clinical improvement in all eleven cases
cases with complete clinical improvement ([3]; of eleven cases): eight

Compound: heparin
effect on trophoblast apoptosis (trophoblast apoptosis): regulate trophoblast apoptosis

Compound: tifacogin: recombinant TFPI (Chiron Corp/Pharmacia Corp)
treatment of severe sepsis (severe sepsis): failure
